Biological target: human Plasma Kallikrein (KLKB1) (Homo sapiens (Human), UniProt P03952)
Experiment: Inhibition of KLKB1 endpoint assay
Type: biochemical
Conditions: fluorogenic substrate H-Pro-Phe-Arg-AMC, 1 hr at Room Temperature, read-out: IC50 measurements for the inhibition of human Plasma Kallikrein (KLKB1)
Protocol: The ability of compounds of Formula I to inhibit plasma kallikrein (KLKB1), Factor XIIa (FXIIa), Factor XIa (FXIa), Factor Xa (FXa), Factor IIa (alpha-thrombin; FIIa), plasmin, trypsin, tissue kallikrein 1 (KLK1), Factor VIIa (FVIIa), or FVIIa complexed with Tissue Factor, phospholipids and CaCl2 (FVIIa/TF/PL/CaCl2) was determined using the following biochemical assays in assay buffer (100 mM Tris, 150 mM NaCL, adjusted to a pH of 7.8 with HCl, and containing 0.1% (w/v) BSA and 0.05% (v/v) Tween20) in the presence of 1% (v/v) DMSO:
Subsequently, PPACK II (Calbiochem) was added as a stop solution to achieve a final concentration of 1 μM and fluorescence was measured using an Envision Reader (PerkinElmer) with the wavelength excitation setting of 355 nm and the wavelength emission setting of 460 nm.

Sequence of human Plasma Kallikrein (KLKB1) (P03952 391-638): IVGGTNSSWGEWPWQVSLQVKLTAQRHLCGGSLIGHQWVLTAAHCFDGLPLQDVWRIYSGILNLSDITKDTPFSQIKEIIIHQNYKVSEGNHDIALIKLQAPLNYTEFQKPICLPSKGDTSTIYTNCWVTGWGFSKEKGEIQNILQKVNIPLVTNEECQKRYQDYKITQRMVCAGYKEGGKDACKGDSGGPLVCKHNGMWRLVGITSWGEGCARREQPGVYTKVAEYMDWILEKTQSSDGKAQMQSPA
Sequence of human Plasma Kallikrein (KLKB1) (P03952 20-390 partner): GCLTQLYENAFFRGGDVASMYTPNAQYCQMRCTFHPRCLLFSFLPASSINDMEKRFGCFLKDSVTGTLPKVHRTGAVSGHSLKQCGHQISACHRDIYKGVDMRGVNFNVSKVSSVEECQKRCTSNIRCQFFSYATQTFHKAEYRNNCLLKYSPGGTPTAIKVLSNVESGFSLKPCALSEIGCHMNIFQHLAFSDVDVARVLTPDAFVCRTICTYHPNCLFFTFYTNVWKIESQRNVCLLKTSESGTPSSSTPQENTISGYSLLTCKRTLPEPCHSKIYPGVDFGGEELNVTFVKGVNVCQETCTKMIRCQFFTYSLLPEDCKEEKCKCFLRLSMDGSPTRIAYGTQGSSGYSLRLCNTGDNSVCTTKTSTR

| SMILES | IC50 |
| --- | --- |
| Nc1nccc2c1C(NC(=O)c1cn(Cc3ccc(Cn4cccn4)cc3)nn1)CC2 (stereo not shown) [Example 2, 1-(4-Pyrazol-1-ylmethyl-benzyl)-1H-[1,2,3]triazole-4-carboxylic acid (1-amino-6,7-dihydro-5H-[2]pyrindin-7-yl)-amide] | 600 nM |
| Nc1cc2c(cn1)C(NC(=O)c1cn(Cc3ccc(Cn4cccn4)cc3)nn1)CC2 (stereo not shown) [Example 4] | 790 nM |
| Cc1cnn(Cc2ccc(Cn3cc(C(=O)N[C@@H]4CCc5c4ccnc5N)c(C(F)(F)F)n3)cc2)c1 [Example 15] | 1 nM |
| C[C@H]1CCN(c2ccc(Cn3cc(C(=O)N[C@@H]4CCc5nc(N)ccc54)c(C(F)(F)F)n3)cn2)C1 [Example 14] | 40 nM |
| Cc1cnn(Cc2ccc(Cn3cc(C(=O)N[C@@H]4CCc5nc(N)ccc54)c(C(F)(F)F)n3)cc2)c1 [Example 16] | 18 nM |

Continued, values first:

| IC50 | SMILES |
| --- | --- |
| 910 nM | Cc1ccc2cc(Cn3cc(C(=O)NC4CCc5nc(N)ccc54)nn3)ccc2n1 (stereo not shown) [Example 7] |
| 560 nM | CC(C)(O)c1cccn(Cc2ccc(Cn3cc(C(=O)NC4CCc5nc(N)ccc54)nn3)cc2)c1=O (stereo not shown) [Example 9] |
| 900 nM | Cc1ccc2cc(Cn3cc(C(=O)NC4CCCc5nc(N)ccc54)nn3)ccc2n1 (stereo not shown) [Example 1, 1-(2-Methyl-quinolin-6-ylmethyl)-1H-[1,2,3]triazole-4-carboxylic acid (2-amino-5,6,7,8-tetrahydro-quinolin-5-yl)-amide] |
| 32 nM | Nc1ccc2c(n1)CCC2NC(=O)c1cnn(Cc2ccc(Cn3cccn3)cc2)c1 (stereo not shown) [Example 6] |
| 5500 nM | Nc1ccc2c(n1)CCC2NC(=O)c1cn(Cc2ccc(C(F)c3ccon3)cc2)nn1 (stereo not shown) [Example 3] |

— patent US10399961B2, “Heteroarylcarboxamide derivatives as plasma kallikrein inhibitors” (Boehringer Ingelheim International GmbH, priority 2015, dated 2019)
